Measurements taken from patent US8143227B2, “Azithromycin for treatment of skin disorders” (priority 2008, dated 2012).
≈ marks a conversion by molar mass, not a printed value. Where two headings read alike, the source gives them in different places.

What was measured:
[1] = Azithromycin levels in sebum (Sebutape patches); format: in vivo, human; conditions: for concentration at 42 day: human, sebum, oral
Description: Sebum was collected from the subjects of Example 1 by use of Sebutape® (CuDerm Corporation, Dallas Tex.). On study days 0, 21, 42, and 70, each subject placed three Sebutape® adhesive patches on each of the forehead, and left and right cheeks on the skin of the face and left the patches in place for 30 to 40 minutes. The patches were then removed, folded in half with the adhesive side inward, placed in a sealed glass vial, and frozen at −20° C. to −70° C. […] Each Sebutape® patch was analyzed for quantity in nanograms of azithromycin.

[2] = Azithromycin levels in skin (follicular biopsy); format: in vivo, human; conditions: for Skin Concentration (median): follicular biopsy
Description: Standardized follicular biopsy samples, representative of the pilosebaceous unit of the skin, were obtained from the upper back from each of the subjects of Example 1 on study days 0, 21, 42, and 70. The samples were analyzed to determine the tissue level of azithromycin in each biopsy sample.

[3] = Gastrointestinal side effects monitoring; format: in vivo, human; conditions: 40, 80, or 120 mg/day; 42 days treatment plus 4 weeks after cessation
Description: The subjects of Example 1 were monitored for the presence of gastrointestinal adverse effects during the six weeks (42 days) of treatment with the daily low-dose azithromycin of the invention and for an additional 4 weeks (total of 70 days) following cessation of treatment.

[4] = Additional low dosage regimens, adverse effects; format: in vivo, human
Description: The numbers of facial inflammatory lesions: papules, pustules, and nodules, and non-inflammatory lesions: open and closed comedones, were counted at the beginning of treatment and again after 3 weeks of treatment and after 6 weeks of treatment. Additionally, nodules were counted independently at each of these visits. Additionally, during the treatment study, each subject reported the occurrence of any adverse effects. The results of this study for the 25 mg/day regimen are shown in Table 7 and for the 80 mg every other day regiment in Table 8. In these tables, the numbers represent the mean number of lesions in the four subjects of each group. The % decrease from Day 0 was calculated as the mean of the differences for each of the parameters (inflammatory lesions, non-inflammatory lesion and nodules) for each individual subject on Day 21 and Day 42.

Streptococcus pyogenes = conditions: Neu 1991; cited from earlier work
Staphylococcus aureus = conditions: Neu 1991; relative to P. acnes; cited from earlier work
inflammatory acne = conditions: 250 mg three times per week, cited from earlier work
acne [5] = conditions: 500 mg/day for 4 days in four cycles every 10 days; Gruber 1998; cited from earlier work
acne [6] = conditions: 500 mg three times per week; Kapadia 2004; cited from earlier work
acne [7] = conditions: Elewski, cited from earlier work
[8] = 40 mg/day, Day 70 (28 days after last dose)
[9] = 80 mg/day, Day 70 (28 days after last dose)
[10] = 120 mg/day, Day 70 (28 days after last dose)

For `CC[C@H]1OC(=O)[C@H](C)[C@@H](O[C@H]2C[C@@](C)(OC)[C@@H](O)[C@H](C)O2)[C@H](C)[C@@H](O[C@@H]2O[C@H](C)C[C@H](N(C)C)[C@H]2O)[C@](C)(O)C[C@@H](C)CN(C)[C@H](C)[C@@H](O)[C@]1(C)O` [Azithromycin, 9-deoxo-9a-aza-9a-methyl-9a-homoerythromycin A], the “Sebum Concentration (median) ng per sample” value ([1]; 40 mg/day, Day 0) was 0.00 ng per sample, the “Sebum Concentration (median)” value ([1]; 40 mg/day, Day 0, ng per sample divided by 1.38 mg) was “.00 ng/mg” and the “Sebum Concentration (median)” value ([1]; 40 mg/day, Day 0, ng/mg times […]) was “.00 ng/µL”. The “Sebum Concentration (median) ng per sample” value ([1]; 40 mg/day, Day 21) was 0.00 ng per sample, the “Sebum Concentration (median)” value ([1]; 40 mg/day, Day 21, ng per sample divided by 1.38 mg) was “.00 ng/mg” and the “Sebum Concentration (median)” value ([1]; 40 mg/day, Day 21, ng/mg times […]) was “.00 ng/µL”. The “Sebum Concentration (median) ng per sample” value ([1]; 40 mg/day, Day 42) was 0.19 ng per sample, the “Sebum Concentration (median)” value ([1]; 40 mg/day, Day 42, ng per sample divided by 1.38 mg) was “.14 ng/mg” and the “Sebum Concentration (median)” value ([1]; 40 mg/day, Day 42, ng/mg times […]) was “.12 ng/µL”. For the same compound, the “Sebum Concentration (median) ng per sample” value [1, 8] was 0.00 ng per sample, the “Sebum Concentration (median)” value ([1]; 40 mg/day, Day 70, ng per sample divided by 1.38 mg) was “.00 ng/mg” and the “Sebum Concentration (median)” value ([1]; 40 mg/day, Day 70, ng/mg times […]) was “.00 ng/µL”. The “Sebum Concentration (median) ng per sample” value ([1]; 80 mg/day, Day 0) was 0.00 ng per sample, the “Sebum Concentration (median)” value ([1]; 80 mg/day, Day 0, ng per sample divided by 1.38 mg) was “.00 ng/mg” and the “Sebum Concentration (median)” value ([1]; 80 mg/day, Day 0, ng/mg times […]) was “.00 ng/µL”. For the same compound, the “Sebum Concentration (median) ng per sample” value ([1]; 80 mg/day, Day 21) was 0.79 ng per sample, the “Sebum Concentration (median)” value ([1]; 80 mg/day, Day 21, ng per sample divided by 1.38 mg) was “.57 ng/mg” and the “Sebum Concentration (median)” value ([1]; 80 mg/day, Day 21, ng/mg times […]) was “.50 ng/µL”. The “Sebum Concentration (median) ng per sample” value ([1]; 80 mg/day, Day 42) was 0.84 ng per sample, the “Sebum Concentration (median)” value ([1]; 80 mg/day, Day 42, ng per sample divided by 1.38 mg) was “.61 ng/mg” and the “Sebum Concentration (median)” value ([1]; 80 mg/day, Day 42, ng/mg times […]) was “.53 ng/µL”. The “Sebum Concentration (median) ng per sample” value [1, 9] was 0.00 ng per sample, the “Sebum Concentration (median)” value ([1]; 80 mg/day, Day 70, ng per sample divided by 1.38 mg) was “.00 ng/mg” and the “Sebum Concentration (median)” value ([1]; 80 mg/day, Day 70, ng/mg times […]) was “.00 ng/µL”. The “Sebum Concentration (median) ng per sample” value ([1]; 120 mg/day, Day 0) was 0.00 ng per sample, the “Sebum Concentration (median)” value ([1]; 120 mg/day, Day 0, ng per sample divided by 1.38 mg) was “.00 ng/mg” and the “Sebum Concentration (median)” value ([1]; 120 mg/day, Day 0, ng/mg times […]) was “.00 ng/µL”. The “Sebum Concentration (median) ng per sample” value ([1]; 120 mg/day, Day 21) was 0.76 ng per sample, the “Sebum Concentration (median)” value ([1]; 120 mg/day, Day 21, ng per sample divided by 1.38 mg) was “.55 ng/mg” and the “Sebum Concentration (median)” value ([1]; 120 mg/day, Day 21, ng/mg times […]) was “.48 ng/µL”. The “Sebum Concentration (median) ng per sample” value ([1]; 120 mg/day, Day 42) was 0.88 ng per sample, the “Sebum Concentration (median) ng per sample” value ([1]; 120 mg/day, Day 42, listed as azithromycin) was “about 0.88 ng per sample” and the “Sebum Concentration (median)” value ([1]; 120 mg/day, Day 42, ng per sample divided by 1.38 mg) was “.64 ng/mg”. The “Sebum Concentration (median)” value ([1]; 120 mg/day, Day 42, ng/mg times […]) was “.55 ng/µL”, the “Sebum Concentration (median) ng per sample” value [1, 10] was 0.00 ng per sample and the “Sebum Concentration (median)” value ([1]; 120 mg/day, Day 70, ng per sample divided by 1.38 mg) was “.00 ng/mg”. The “Sebum Concentration (median)” value ([1]; 120 mg/day, Day 70, ng/mg times […]) was “.00 ng/µL”, the concentration at 42 day ([1]; 120 mg/day, Day 42, ng per sample divided by 1.38 mg, read-out: Sebum Concentration (median) ng/mg) was roughly 640 ng/g and the concentration at 42 day ([1]; 120 mg/day, Day 42, ng/mg times 0.87 mg/μl, read-out: Sebum Concentration (median)) was roughly 550 ng/mL. The “clearance of azithromycin from the pilosebaceous apparatus” value ([2]; after attaining saturation or near saturation levels) was “more than 28 days”, the “Skin Concentration (median)” value ([2]; 40 mg/day, Day 0) was 0.00 ng/sample and the “Skin Concentration (median)” value ([2]; 40 mg/day, Day 21) was 0.34 ng/sample. For the same compound, the “Skin Concentration (median)” value ([2]; 40 mg/day, Day 42) was 0.59 ng/sample, the “Skin Concentration (median)” value [2, 8] was 0.00 ng/sample and the “Skin Concentration (median)” value ([2]; 80 mg/day, Day 0) was 0.00 ng/sample. The “Skin Concentration (median)” value ([2]; 80 mg/day, Day 21) was 1.34 ng/sample, the “Skin Concentration (median)” value ([2]; 80 mg/day, Day 42) was 1.68 ng/sample and the “Skin Concentration (median)” value [2, 9] was 0.47 ng/sample. The “Skin Concentration (median)” value ([2]; 120 mg/day, Day 0) was 0.00 ng/sample, the “Skin Concentration (median)” value ([2]; 120 mg/day, Day 21) was 1.65 ng/sample and the “Skin Concentration (median)” value ([2]; 120 mg/day, Day 42) was 1.99 ng/sample. For the same compound, the “Skin Concentration (median)” value [2, 10] was 0.50 ng/sample, the “time to effective steady state level of azithromycin in skin” value ([2]; low doses, following commencement of therapy, no initial spike dose) was no more than 20 days and the “dosage at which the skin becomes saturated, theorized from the data” value ([2]; theorized from Table 3 data) was “about 95 mg/day”. The gastrointestinal side effects [3] was “no gastrointestinal side effects were reported”, the adverse effects reported ([4]; 25 mg per day for 6 weeks, migraine headache on day 21, deemed not related) was “only one adverse effect was reported” and the “typical antibiotic side effects (abdominal cramping, nausea, vomiting, diarrhea or vaginitis)” value ([4]; 25 mg per day or 80 mg every other day for 6 weeks) was “no typical antibiotic side effects reported”. For the same compound, the adverse effects reported ([4]; 80 mg every other day for 6 weeks) was “no adverse effects were reported”, the “MIC90 against Streptococcus pyogenes” value (Streptococcus pyogenes) was 0.12 µg/mL (≈ 0.16 µM) and the “MIC against Staphylococcus aureus” value (Staphylococcus aureus) was “higher than that for P. acnes”. For the same compound, the “cases of gastrointestinal discomfort” value (inflammatory acne; 21 subjects) was 3 cases, the cases of vaginitis (inflammatory acne; 21 subjects) was “one” and the “subjects who experienced side effects” value (inflammatory acne; 21 subjects) was 19%. The “efficacy in treating lesions of inflammatory acne” value (inflammatory acne; Fernandez-Obregon 2000) was “as effective as other antibiotics tested”, the “efficacy in the treatment of acne” value (acne [5]) was “efficacious” and the “gastrointestinal side effect rate” value (acne [5]) was “about 10%”. The “subjects with adverse events” value (acne [6]) was 11%, the treatment of acne (acne [6]) was “successful treatment” and the improvement in acne (acne [7]; 500 mg day 1, then 250 mg/day for 4 days, from 1st and 15th of each month, 3 months) was “all patients treated with this azithromycin regimen showed improvement”. For the same compound, the “subjects who experienced gastrointestinal side effects” value (acne [7]; same regimen) was “only one of twenty subjects”.
